From patent US8492420B2, “Use of purine derivatives for the production of medicaments for the treatment of mucoviscidosis and diseases related to protein addressing errors in cells” (Centre National de la Recherche Scientifique-CNRS, priority 2004, dated 2013)
Entries after “also recorded” stand apart in the source; their conditions may differ. Like-named read-outs stand apart in the source and are kept apart here.

Assays:
delF508-CFTR [1] = target: T1, delF508-CFTR (Homo sapiens, UniProt P13569, DEL508-508); test: Iodide efflux test of delF508 addressing in CF15 cells
T1 sequence (P13569 with tags, fused parts or gaps DEL508-508): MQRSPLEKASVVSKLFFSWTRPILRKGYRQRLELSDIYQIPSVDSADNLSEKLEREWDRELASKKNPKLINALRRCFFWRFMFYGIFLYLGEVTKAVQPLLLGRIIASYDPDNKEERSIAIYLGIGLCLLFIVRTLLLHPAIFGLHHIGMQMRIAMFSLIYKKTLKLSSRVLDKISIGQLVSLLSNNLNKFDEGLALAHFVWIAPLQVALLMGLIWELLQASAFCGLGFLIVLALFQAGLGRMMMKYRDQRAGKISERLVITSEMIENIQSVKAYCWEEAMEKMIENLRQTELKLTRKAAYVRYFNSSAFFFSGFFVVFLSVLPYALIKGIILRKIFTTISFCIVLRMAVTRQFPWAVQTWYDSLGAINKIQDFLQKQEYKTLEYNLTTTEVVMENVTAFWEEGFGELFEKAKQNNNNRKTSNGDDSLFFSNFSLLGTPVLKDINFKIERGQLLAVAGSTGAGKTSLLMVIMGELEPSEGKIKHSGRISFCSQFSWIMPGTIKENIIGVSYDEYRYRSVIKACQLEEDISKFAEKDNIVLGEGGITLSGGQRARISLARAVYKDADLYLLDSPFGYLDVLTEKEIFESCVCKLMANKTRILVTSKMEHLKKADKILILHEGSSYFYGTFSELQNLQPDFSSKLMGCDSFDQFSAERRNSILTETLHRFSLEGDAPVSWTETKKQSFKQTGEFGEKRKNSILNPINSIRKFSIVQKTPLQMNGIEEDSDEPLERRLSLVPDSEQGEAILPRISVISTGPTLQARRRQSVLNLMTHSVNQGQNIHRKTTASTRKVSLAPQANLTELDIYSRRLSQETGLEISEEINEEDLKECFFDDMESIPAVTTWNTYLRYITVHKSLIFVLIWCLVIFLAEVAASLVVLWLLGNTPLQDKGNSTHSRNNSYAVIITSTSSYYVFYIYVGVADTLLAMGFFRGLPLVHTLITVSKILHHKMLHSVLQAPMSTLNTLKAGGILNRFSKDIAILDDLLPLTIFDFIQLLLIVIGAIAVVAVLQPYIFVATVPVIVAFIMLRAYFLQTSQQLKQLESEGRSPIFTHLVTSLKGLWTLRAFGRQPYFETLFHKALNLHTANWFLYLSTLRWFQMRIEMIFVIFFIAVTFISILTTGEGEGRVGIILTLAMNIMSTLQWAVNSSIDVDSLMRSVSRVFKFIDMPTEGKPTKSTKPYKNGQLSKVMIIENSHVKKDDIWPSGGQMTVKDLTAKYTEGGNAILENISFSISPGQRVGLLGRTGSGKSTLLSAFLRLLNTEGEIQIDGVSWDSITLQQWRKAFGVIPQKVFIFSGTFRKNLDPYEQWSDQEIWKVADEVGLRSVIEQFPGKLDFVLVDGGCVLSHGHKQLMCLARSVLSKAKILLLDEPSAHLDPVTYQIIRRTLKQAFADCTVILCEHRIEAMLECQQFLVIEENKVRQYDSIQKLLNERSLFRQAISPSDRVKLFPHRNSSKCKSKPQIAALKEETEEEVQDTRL
Protocol: These cells will therefore overexpress the CFTR protein. • Culture medium: MEM alpha medium (GIBCO)+7% foetal calf serum+0.5% penicilline/streptomycin+100 μM methotrexate (amethopterine, Sigma). • CF15 cells: CF15 cells are human nasal epithelial cells expressing the ΔF508-CFTR gene. • Culture medium: DMEM+HAM F12 medium+10% FCS+0.6% penicilline/streptomycin+growth factors (5 μg/ml insulin, 5 μg/ml transferrin, 5.5 μM epinephrin, 0.18 mM adenine, 10 ng/ml EGF, 2 nM T3, 1.1 μM hydrocortisone). • Calu-3 cells: Calu-3 cells are human lung epithelial cells expressing the wild-type CFTR gene. • Culture medium: DMEM/F12 medium with glutamax+7% foetal calf serum+1% penicillin/streptomycin.
Measurements of chloride ion transport in the cells were performed using the radioactive iodide efflux technique (Becq and al., 1999; Dormer and al., 2001). The ^125I tracer is incorporated into the intracellular milieu. The quantity of radiotracer coming out of the cell is then measured after adding various pharmacological agents. Iodide is used as a tracer of chloride ion transport. ^125I has the advantage of being short-lived compared to other markers such as ^35CI (respective half-lives: 30 days and 300,000 years).
The cells are incubated in an appropriate medium in 24-well plates. The cells are rinsed twice with efflux medium (136.6 mM NaCl, 5.4 mM KCl, 0.3 mM KH2PO4, 0.3 mM NaH2PO4, 4.2 mM NaHCO3, 1.3 mM CaCl2, 0.5 mM MgCl2, 0.4 mM MgSO4, 10 mM HEPES, 5.6 mM D-glucose) in order to eliminate dead cells, which release radioactivity in an anarchic fashion. The cells are then incubated with a 500-μl load (1 μCi/ml ^125INa) for 30 min for CHO-WT or 1 hr for CF15 and Calu-3 cells. The iodide equilibrates on either side of the cell membrane. The following steps are performed using a MultiPROBE probe (Packard): the loading medium is rinsed with efflux medium in order to eliminate extracellular radioactivity. The supernatant is collected every minute into haemolysis tubes and the medium is replaced by an equivalent volume of medium (500 μl). No drug is added to the samples taken in the first three minutes in order to obtain a stable baseline characterising the passive exit of I ions. The 7 samples that follow are obtained in the presence of the molecule to be tested. At the end of the experiment, the cells are lysed by adding 500 μl of 0.1 N NaOH/0.1% SDS (30 min), which allows determining the level of radioactivity remaining inside the cell. The radioactivity present in the haemolysis tubes is measured as counts per minute (cpm) using a Cobra II gamma counter (Packard). The results (cpm) are expressed as velocity of radioactive iodide efflux (R) according to the formula: R (min^−1)=[In(^125I t1)−In(^125I t2)]/(t1−t2) where ^125I t1=at time t1 and ^125I t2=at time t2. This iodide flux is represented by a graph. In order to quantify the iodide efflux due to administration of the tested molecule, the relative flux is calculated as follows in order to ignore the basal flux: Relative velocity (min^−1)=Rpeak−Rbasal. […] The results are presented in the form of a mean +/−SEM. Student's statistical test is used to compare the effect of the various drugs with the controls (the corresponding P<0.01 values are considered to be statistically significant).
For each experiment, the addition of a cocktail (10 μM Forskoline+30 μM Genisteine) allows activation of the CFTR when the latter is localised in the membrane. This allows an iodide efflux to be observed if delF508 addressing has been restored.

delF508-CFTR [2] = target: T1, delF508-CFTR; test: Immunolocalisation of delF508-CFTR in CF15 cells (confocal); type: cell-based; design: CF15 human lung epithelial cells homozygous for the delF508 deletion; endogenous in cells; host or cells: CF15 human epithelial cells, homozygous delF508; details: 2 hrs treatment, 100 μM
Protocol: Immunolabelling allows visualising the cellular localisation of the CFTR protein by means of an anti-CFTR primary antibody (Ab), and a secondary Cy3-labelled fluorescent antibody directed against the primary antibody. The cells are first seeded on cover slips in an appropriate culture medium. The cells are then washed 3 times with TBS (157 mM NaCl, […] Tris base, pH 7.4) for 5 min. each time and then fixed by adding 3% TBS-paraformaldehyde for 20 min. After 3 washes with TBS (5 min. each), the cells are incubated with 0.1% TBS-triton (10 min) to make holes in the cell membrane, and then washed 3 times with TBS before being exposed to 0.5% TBS-BSA-0.05% saponin for 1 hr. The cells are then incubated with the primary anti-CFTR C terminal antibody (2 μg/ml) for 1 hr. The cells are washed 3 times (5 min. each) with TBS-BSA-saponin before incubating with the GAM-cy3 secondary antibody (1/400) for 1 hr. After 2 TBS washes (5 min. each), the nuclei are labelled by incubating with Topro3 (1/1,000) for 5 min. Finally, the cover slips can be mounted on a glass slide after 3 final TBS washes (5 min. each). The slides are analysed with a confocal microscope (Bio-Rad) using laser excitation at appropriate wave-lengths. In order to differentiate Cy3 from Topro3 labelling, the colour of the Topor3 fluorescence has been changed to blue (colour of the nuclei). […]

delF508-CFTR [3] = target: T1, delF508-CFTR; test: Competition between roscovitine and ER chaperone machinery (iodide efflux); type: cell-based; design: CF15 human lung epithelial cells homozygous for the delF508 deletion; endogenous in cells; host or cells: CF15 human epithelial cells, homozygous delF508
Source text: The competition between CFTR-T1 and the ER chaperone machinery is illustrated by FIGS. 6A and 6B.
The table below summarises the roscovitine and ER chaperone machinery competition experiments performed by the iodide efflux technique. • inhibition, ** P<0.01, * P<0.1, ns P>0.1 (Student's t-test)

delF508-CFTR [4] = target: T1, delF508-CFTR; test: Immunoprecipitation and Western-Blot of delF508-CFTR in CF15 cells; type: cell-based; design: CF15 human lung epithelial cells homozygous for the delF508 deletion; endogenous in cells; host or cells: CF15 human epithelial cells, homozygous delF508; details: 2 hrs, 100 μM
Protocol: The study of delF508-CFTR protein addressing is performed in the laboratory by using a combination of pharmacological, cellular imagery, biochemical and electrophysiological tests on CF15 human lung epithelial cells homozygous for the delF508 deletion. Results of immunoprecipitation and Western-Blot analyses of non mutated CFTR from wild-type CHO cells and delF508 cells treated for 2 hrs with 100 μM of the tested compound (FIG. 3C) or untreated cells (control). CF15 cells treated for 24 hrs at 27° C. (FIG. 3B) or for 2 hrs with 10 μM thapsigargin (TG) were used as a positive control.

wild-type CFTR [5] = target: T2, wild-type CFTR (Homo sapiens, UniProt P13569); test: Iodide efflux test of CFTR addressing in Calu-3 cells; type: cell-based; details: Calu-3 cells treated 2 hrs, 100 μM
T2 sequence (P13569 whole entry): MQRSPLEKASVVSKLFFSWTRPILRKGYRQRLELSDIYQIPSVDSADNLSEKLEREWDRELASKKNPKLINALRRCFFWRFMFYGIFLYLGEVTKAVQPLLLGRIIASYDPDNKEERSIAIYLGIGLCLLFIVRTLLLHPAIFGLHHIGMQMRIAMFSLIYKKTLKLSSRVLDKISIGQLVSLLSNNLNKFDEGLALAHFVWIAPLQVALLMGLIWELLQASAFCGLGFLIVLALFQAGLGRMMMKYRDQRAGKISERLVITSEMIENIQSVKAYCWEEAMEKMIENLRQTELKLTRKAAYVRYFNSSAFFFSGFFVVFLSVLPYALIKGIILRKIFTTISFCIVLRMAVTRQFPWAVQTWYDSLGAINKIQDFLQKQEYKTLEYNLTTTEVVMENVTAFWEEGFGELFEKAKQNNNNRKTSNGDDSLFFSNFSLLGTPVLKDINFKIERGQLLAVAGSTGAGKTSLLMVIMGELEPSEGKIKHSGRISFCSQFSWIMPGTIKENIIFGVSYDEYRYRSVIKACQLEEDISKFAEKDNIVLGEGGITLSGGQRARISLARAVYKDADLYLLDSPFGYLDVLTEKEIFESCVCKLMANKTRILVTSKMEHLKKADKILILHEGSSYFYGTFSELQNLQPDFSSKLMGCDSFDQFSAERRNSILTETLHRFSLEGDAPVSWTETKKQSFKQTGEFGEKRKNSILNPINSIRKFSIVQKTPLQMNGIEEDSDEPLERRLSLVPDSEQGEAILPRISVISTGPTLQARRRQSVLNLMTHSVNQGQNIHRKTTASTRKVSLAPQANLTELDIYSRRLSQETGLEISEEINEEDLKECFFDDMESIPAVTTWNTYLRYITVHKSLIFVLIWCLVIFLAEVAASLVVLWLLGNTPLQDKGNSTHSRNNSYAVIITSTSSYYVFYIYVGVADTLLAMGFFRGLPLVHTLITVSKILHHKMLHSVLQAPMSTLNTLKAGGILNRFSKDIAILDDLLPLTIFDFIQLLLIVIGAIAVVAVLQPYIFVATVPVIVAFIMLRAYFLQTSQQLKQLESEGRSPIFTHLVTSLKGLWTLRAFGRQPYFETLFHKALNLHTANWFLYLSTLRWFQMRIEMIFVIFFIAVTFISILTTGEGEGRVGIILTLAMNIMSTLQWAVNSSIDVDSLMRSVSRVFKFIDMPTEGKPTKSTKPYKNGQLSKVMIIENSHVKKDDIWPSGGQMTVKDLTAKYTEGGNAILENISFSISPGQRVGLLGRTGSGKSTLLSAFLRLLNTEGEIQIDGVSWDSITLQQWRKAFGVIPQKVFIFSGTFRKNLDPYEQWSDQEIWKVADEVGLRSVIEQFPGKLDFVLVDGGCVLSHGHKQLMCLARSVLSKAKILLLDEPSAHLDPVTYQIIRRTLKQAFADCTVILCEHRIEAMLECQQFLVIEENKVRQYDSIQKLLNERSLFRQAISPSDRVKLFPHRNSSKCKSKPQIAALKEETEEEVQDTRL

wild-type CFTR [6] = target: T2, wild-type CFTR; test: Iodide efflux test of CFTR activation in Calu-3 cells; type: cell-based; details: n=8, controls forskoline 5 μM and MPB-91 250 μM
Protocol: The controls used were forskoline (5 μM, n=8) and MPB-91 (250 μM, n=8).

CHO-WT cells = test: MTT cytotoxicity test; type: cell-based, Chinese Hamster; details: 2 hrs incubation, different concentrations
Protocol: The MTT cytotoxicity test is a […] test based on the capacity of mitochondrial dehydrogenases to metabolise MTT (a yellow tetrazolium salt) into formazan (purple). The absorbance is proportional to the concentration of converted dye and can then be measured by spectrophotometry. The cells are incubated in 96-well microplates in the presence of the agent to be tested for 2 hours. Three controls are performed: 100% live cells (cells without any agent); 0% live cells (cells left under normal atmosphere); blank (medium without cells). The cells are rinsed with RPMI medium without phenol red in order for the colour of the medium not to interfere with absorbance measurements. The cells are then incubated for 4 hours with 100 μl RPMI solution supplemented with MTT (0.5 mg/ml). The medium is eliminated and 100 μl DMSO is added to dissolve the converted dye (formazan). The absorbance is measured by spectrophotometry at 570 nm (purple); 630 nm (background noise). In order to ignore the background noise, the following calculation is performed: DOreelle=DO570nm−DO630nm.
In order to test the cytotoxicity of roscovitine, CHO-WT cells were incubated for 2 hrs with different concentrations of inhibitors before being tested for viability with MTT.

[7] = read-out: Ec50 (concentration giving 50% of maximal efficiency) for delF508 addressing, CF15 cells, 2 hrs at 37° C., stimulation with 10 μM Forskoline+30 μM Genisteine, n=4

Compound | EC50 (delF508-CFTR [1]; [7]) | Localisation of delF508-CFTR protein (delF508-CFTR [2]) | Competition with inhibitors of the chaperone and degradation machinery (delF508-CFTR [3]) | Effect of Brefeldine A (BFA) on the compound's action (delF508-CFTR [3]; BFA, inhibitor of ERGIC vesicular traffic) | Effect of MG132 on the compound's action (delF508-CFTR [3]; MG132, proteasome inhibitor) | Maturation of delF508-CFTR (band C in Western-Blot) (delF508-CFTR [4]) | Maturation of delF508-CFTR (band C in Western-Blot) (delF508-CFTR [4]; listed as CFTR-T1) | EC50 (delF508-CFTR [1]) | Function of readdressed delF508-CFTR (iodide efflux and patch-clamp on whole cells) (delF508-CFTR [1]) | Treatment time for maximal correction of delF508-CFTR chloride ion channel function (delF508-CFTR [1]; CF15 cells, 100 μM) | Restoration of delF508 addressing and ion transport function (delF508-CFTR [1]; CF15 cells, 2 hrs at 37° C., two forms (R and S)) | CFTR activity after treatment (wild-type CFTR addressing) (wild-type CFTR [5]) | Activation of wild-type CFTR or other anionic transporter (wild-type CFTR [6]) | Cell viability (MTT) (CHO-WT cells)
CC[C@H](CO)Nc1nc(NCc2ccccc2)c2ncn(C(C)C)c2n1 [R-Roscovitine, 2-(R)-(1-ethyl-2-hydroxyethylamino)-6-benzylamino-9-isopropylpurine] | 34 ± 1.9 µM |  |  |  |  |  |  |  |  |  |  |  |  | 
CC[C@@H](CO)Nc1nc(NCc2ccccc2)c2ncn(C(C)C)c2n1 [S-Roscovitine, 2-(S)(1-ethyl-2-hydroxyethylamino)-6-benzylamino-9-isopropylpurine] | 32 ± 1.4 µM |  |  |  |  |  |  |  |  |  |  |  |  | 
CC[C@H](CO)Nc1nc(NCc2ccccc2)c2ncn(C(C)C)c2n1 [roscovitine] |  | localised in the plasma membrane compartment; also recorded: correct delF508-CFTR relocation to the plasma membrane; also recorded: allowed relocation of the delF508-CFTR protein to the membrane | competed with inhibitors of calnexin/delF508-CFTR binding as well as inhibitors of the degradation pathway | inhibition | no modulation is observed | appearance of the mature CFTR band | maturation of delF508-CFTR (band C appears in the Western-Blot) | 56 µM | functional | 2 h | restores addressing of the delF508 protein | not significantly different from the controls | not found to be an activator | viable at all concentrations
